Assay results reported in US6875843B2, “Prevention of diabetes and prolongation of the honeymoon phase of diabetes by administration of GnRH antagonists” (Children's Mercy Hospital, priority 2001, dated 2005).

Columns and labels:
Type in all cases: in vivo, mouse
[1] = test system: NOD mice; assay: Incidence and onset of diabetes in gonadectomized male NOD mice; details: for Timing of onset of diabetes: gonadectomized NOD mice; for Timing of onset of diabetes / Incidence of diabetes: 100 μg s.c. six times weekly (FIG. 4)
Source text: (§1) Mice. The well-characterized NOD mice were used throughout the study. Male and female mice were purchased from the Jackson Laboratory (Bar Harbor, Me.). These mice are art-recognized animal models used in diabetes research. (Makino et al., (1980) Breeding of a Non-obese Diabetic Strain of Mice. Exp Anim, 29, 1-13; Miyazaki, A. T., et al, (1985) Predominance of T Lymphocytes in Pancreatic Islets and Spleen in Prediabetic Non-Obese Diabetic (Nod) Mice: a Longitudinal Study. Clin Exp immunol, 60, 622-630)
(§2) Experimental Design. Both intact and gonadectomized mice (GDX) were used. […] To compare the effects of GnRH agonists and antagonists, gonadectomized animals were randomized at 14 to 18 days of age and begun immediately in one of the following main treatment groups: GnRH agonist; Antide; vehicle. One group of gonadectomized males was treated with Nal-Glu, as an additional control.
(§3) Gonadectomy. Males were gonadectomized via a single scrotal incision under pentobarbital anesthesia.
(§4) Injections. GnRH (native decapeptide) was purchased from Bachem (Bubendorf, Switzerland). GnRH antagonist Antide (Acetyl-β-[2-Naphthyl]-D-Ala-D-p-Chloro-Phe-β-[3-Pyridyl]-D-Ala-Ser-Nε-[Nicotinoyl]-Lys-Nε-[Nicotinoyl]-D-Lys-Leu-Nε-[Isopropyl]-Lys-Pro-D-Ala-NH2) was supplied by Contraceptive Development Branch (NICHHD) of the National Institutes of Health and Ares-Serono (Randolph, Mass.). A second GnRH antagonist, Nal-Glu (acetyl-D2Nal1, D4CIPhe2, D3Pal3, Arg5, Dglu6 (AA), DAla10) was supplied by NICHHD and was used on a subset of mice. All references to GnRH agonist refer to the native decapeptide. Animals were injected subcutaneously in the nape of the neck six times weekly, in the a.m., with 100 μg of GnRH or GnRH antagonist in 100 μl of vehicle consisting of 50% propylene glycol and 50% double distilled water.
(§5) Clinical tests. Total immunoglobulin G concentrations were measured by single radial immunodiffusion assay using immunodiffusion plates containing monospecific antiserum for IgG (ICN Biomedicals, Inc., Costa Mesa, Calif. ). Serum glucoses were checked weekly using a One Touch Fast Take meter (Lifescan, Milpitas, Calif.) Urine was tested for glucose by urinalysis reagent strips (Miles, Inc., Elkhart Ind.). Glycosuria was scored by comparison to reference standards on a scale of 0 to 4 as follows: negative=0; 30 mg/dL=1; 100 mg/dL=2; 300 mg/dL=3;>1000 mg/dL=4.
Statistics. Serum immunoglobulin measurements were compared by two-tailed Student's paired t-tests. Percentages of mice remaining diabetes-free was assessed by Mantel-Haenszel methodology. (Mantel, N. (1966) Evaluation of Survival Data and Two New Rank Order Statistics Arising in its Consideration. Cancer Chemother Rep, 50, 163-70)

[2] = test system: NOD mice; assay: Lymphocytic infiltration of islet cells, pancreatic histology in gonadectomized NOD mice; details: 100 μg s.c. six times weekly, 3, 5, 7, 9 and 11 weeks, vs vehicle (FIG. 5)
Method: In this example, gonadectomized NOD mice were treated with either the GnRH antagonist Antide or the vehicle (50% propylene glycol and 50% double distilled water) to determine differences in the rate of lymphocytic infiltration of islet cells.
Mice. The well-characterized NOD mice were used throughout the study. Male and female mice were purchased from the Jackson Laboratory (Bar Harbor, Me.). Again, these mice are art-recognized animal models used in diabetes research.
as §3
Injections. The mice were injected subcutaneously in the nape of the neck six times weekly, in the a.m., with 100 μg of the GnRH antagonist in 100 μl of vehicle consisting of 50% propylene glycol and 50% double distilled water.
Pancreatic Histology. Three mice per treatment group were euthanized at 3, 5, 7, 9, and 11 weeks. Pancreatic histologic sections were stained by hemotoxillin and eosin. Ten tissue sections per treatment group were examined. All […] in each tissue section were scored with regard to the presence or absence of lymphocytic infiltrates.

[3] = test system: NOD mice; assay: Serum prolactin by radioimmunoassay in NOD mice; details: 100 μg s.c. six times weekly
Source text: as §4
Sera. Sera were collected from blood obtained every six weeks by retroorbital puncture after light isofluorane anesthesia.
Hormone measurements. Serum testosterone concentrations were measured by RIA using a commercial kit (Coat-A-Count, Diagnostic Products Corporation, Los Angeles, Calif.). Serum LH and prolactin were measured by radioimmunoassay (RIA) using previously described methods. […]

[4] = test system: NOD mice; assay: Serum total immunoglobulin G in gonadectomized NOD mice (single radial immunodiffusion); details: 100 μg s.c. six times weekly, 8 weeks of treatment, vs vehicle (FIG. 3)
Source text: as §1
as §2, with “control. […]” for “control.”
as §5, with “Serum glucoses were checked weekly using a One Touch Fast Take meter (Lifescan, Milpitas, Calif.) Urine was tested for glucose by urinalysis reagent strips (Miles, Inc., Elkhart Ind.).” left out
Statistics. […] Percentages of mice remaining diabetes-free was assessed by Mantel-Haenszel methodology. […]

Substance	Timing of onset of diabetes [1]	Incidence of diabetes ([1]; gonadectomized male NOD mice)	Percentage of treated mice diabetic ([1]; gonadectomized male NOD mice, 100 μg s.c. six times weekly, at 60 weeks of age, compared to vehicle (FIG. 4))	Lymphocytic infiltration of islets (percentages of islets infiltrated) [2]	Serum prolactin levels [3]	Serum IgG concentrations [4]
Acetyl-β-[2-Naphthyl]-D-Ala-D-p-Chloro-Phe-β-[3-Pyridyl]-D-Ala-Ser-Nε-[Nicotinoyl]-Lys-Nε-[Nicotinoyl]-D-Lys-Leu-Nε-[Isopropyl]-Lys-Pro-D-Ala-NH2 [Antide]	delayed onset of diabetes	significantly decreased	0%	statistically significant reduction in lymphocytic infiltration	neither agonist nor antagonist treatment altered serum prolactin levels	reduced serum IgG concentrations to levels seen in sham operated mice
GnRH agonist: GnRH native decapeptide purchased from Bachem; all references to GnRH agonist refer to the native decapeptide (QHWSYGLRPG; Gonadoliberin-1; UniProt P01148 24-33, looked up)	accelerated	significantly increased			neither agonist nor antagonist treatment altered serum prolactin levels	further increased IgG levels compared to vehicle
